Source: patent US12479816B2, “20-HETE formation inhibitors” (UNIVERSITY OF PITTSBURGH—OF THE COMMONWEALTH SYSTEM OF …, priority 2019, dated 2025)
≈ marks a conversion by molar mass, not a printed value.

Tests used:
[1] = Turbidometric solubility determination; format: physicochemical; conditions: PBS with 1% DMSO, aqueous buffer, kinetic from dmso stock, room temperature, OD620, read-out: Max Solub
Procedure: Solubility determinations shown in Table 3 were obtained turbidometrically and in a manner similar to the one described in Perez et al., J. Biomol. Screen, 2015, 20(2), 254-64. The method requires small volumes of 100× stock concentration drug solution to be prepared in DMSO 0, 0.23, 0.47, 0.94, 1.88, 3.75, 7.5, 15.0, 30.0 and […]. The stock drug concentrations are then diluted 1:100 added into triplicate wells containing PBS in a clear bottom 384 well microtiter to achieve final testing concentrations of 0, 2.3, 4.7, 9.4, 18.8, 37.5, 75, 150, 300, 600 μM in 1% DMSO. The plate is allowed to equilibrate with constant shaking for 2 hours at room temperature. The plate is then placed in a SpectroMax V plate reader to measure absorbance at 620 nm. Increase in absorbance is evident in test wells which precipitation of the compound is evident. The plot of OD620 vs. drug concentration is used to calculate the maximum solubility limit as determined by a statistically significant increase in absorbance above the background levels.

[2] = tested on: 20-HETE formation (CYP4) in HLM; assay: Inhibition of 20-HETE formation at 250 or 500 nM in HLM microsomal incubations; format: biochemical, human; conditions: 500 nM compound; HLM 300 μg/ml, AA 100 μM, 20 min
Procedure: (§1) To screen the inhibitory effects against 20-HETE formation, compounds were screened in HLM, RLM, RKM and rCYP4F2 microsomal incubations. Compounds dissolved in either 100% methanol or 100% DMSO to yield 10 mM stock solution. Microsomal incubations containing HLM, RLM, RKM (300 μg/ml) or rCYP4F2 (25 pmol/mL), AA (100 μM), NADPH (1 mM) treated with test compounds at various concentrations (500 nM or 250 nM) in a 1 ml total volume in incubation buffer (0.12 M potassium phosphate buffer containing 5 mM magnesium chloride). Reaction was started by adding NADPH to the incubates and was carried out at 37° C. in a shaking water bath for 20 min. Reaction was stopped by placing tubes on ice, followed by adding 125 μl 20-HETE-d6 as internal standard to each sample. Microsomal incubations were extracted with 3 ml ethyl ether twice, dried down under nitrogen gas and reconstituted in 125 μl 80:20 methanol:deionized H2O for analysis. 20-HETE formation was quantified using a validated UPLC-MS/MS assay and normalized by vehicle group. Each compound had three replications (n=3). Vehicle group was used as control to calculate percentage of 20-HETE formation rate. HET0016 (250 nM) was used as positive control. Incubates without NADPH group served as the negative control. An Acquity ultra performance LC autosampler (Waters, Milford, MA) was used to isolate 20-HETE on an UPLC BEH C18, 1.7 μm (2.1×100 mm) reversed-phase column (Waters, Milford, MA) protected by a guard column (2.1×5 mm; Waters, Milford, MA) of the same packing material. Column temperature was maintained at 55° C. Mobile phases consisted of 0.005% acetic acid, 5% acetonitrile in deionized water (A) and 0.005% acetic acid in acetonitrile (B). The flow rate for mobile phases is 0.5 ml/min. The initial mixture of mobile phase was 65:35 of A and B. Mobile phase B increased at 0.4 minutes after injection from 35% to 70% in a linear gradient over 4 minutes, and again increased to 95% over 0.5 minutes where it remained for 0.3 minutes. This was followed by a linear return to initial conditions over 0.1 minutes with a 1.5 minute pre-equilibration period prior to the next sample run. Total run time was 6.4 minutes for each injection. Injection volumes were 7.5 μl. Mass spectrometric analysis was carried out using a TSQ Quantum Ultra (Thermo Fisher Scientific, San Jose, CA) triple quadrupole mass spectrometer using heated electrospray ionization (HESI). Mass spectrometer was operated in negative selective reaction monitoring (SRM) mode with unit resolutions at both Q1 and Q3 set at 0.70 Da full width at half maximum. Scan time was set at 0.01 s and collision gas pressure was 1.3 mTorr. Quantitation of 20-HETE by SRM was performed by monitoring the m/z. Analytical data was acquired and analyzed using Xcaliber 3.0 data system (ThermoFinnigan, San Jose, CA).

[3] = molecular target: T1, rCYP4F2 (Homo sapiens, UniProt P78329); assay: Inhibition of 20-HETE formation at 250 or 500 nM in rCYP4F2 incubations; format: biochemical; conditions: 500 nM compound; rCYP4F2 25 pmol/mL; read-out: rCYP4F2 % inh. @ 500 nM
T1 sequence (P78329 5-520): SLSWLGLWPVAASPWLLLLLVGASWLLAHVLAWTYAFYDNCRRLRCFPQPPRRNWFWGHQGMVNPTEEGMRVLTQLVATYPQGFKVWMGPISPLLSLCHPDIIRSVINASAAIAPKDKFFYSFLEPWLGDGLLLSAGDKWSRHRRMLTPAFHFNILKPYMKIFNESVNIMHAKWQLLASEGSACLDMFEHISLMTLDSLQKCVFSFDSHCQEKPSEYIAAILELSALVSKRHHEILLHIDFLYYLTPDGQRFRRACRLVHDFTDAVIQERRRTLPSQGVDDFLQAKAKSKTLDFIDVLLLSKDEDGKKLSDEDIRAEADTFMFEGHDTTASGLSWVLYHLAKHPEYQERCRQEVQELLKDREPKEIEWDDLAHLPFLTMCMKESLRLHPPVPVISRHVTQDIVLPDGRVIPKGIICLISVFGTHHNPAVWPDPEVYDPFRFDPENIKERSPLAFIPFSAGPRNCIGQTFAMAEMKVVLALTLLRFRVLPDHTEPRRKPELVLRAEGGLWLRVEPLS
Procedure: as §1

[4] = tested on: 20-HETE formation (CYP4) in RLM; assay: Inhibition of 20-HETE formation at 250 or 500 nM in RLM microsomal incubations; format: biochemical, rat; conditions: 500 nM compound; RLM 300 μg/ml
Procedure: as §1

| solubility at 2 h [1] [µM] | HLM % inh. @ 500 nM [2] [%] | inhibition at 0.5 µM [3] [%] | RLM % inh. @ 500 nM [4] [%] | Compound |
| --- | --- | --- | --- | --- |
| 443 (≈ 152 µg/mL) |  |  |  | O=C1CCCN1Cc1ccc(C2CCN(c3cn[nH]c3)CC2)c(F)c1 [Compound 118, 1-(4-(1-(1H-Pyrazol-4-yl)piperidin-4-yl)-3-fluorobenzyl)pyrrolidin-2-one] |
| 151 (≈ 41 µg/mL) |  |  |  | COc1ccc(CC2CCN(c3cn[nH]c3)CC2)cc1 [Compound 127, 4-[(4-Methoxyphenyl)methyl]-1-(1H-pyrazol-4-yl)piperidine] |
| 127 (≈ 35 µg/mL) | 61.10 | 74.5 | 0.00 | COc1cc(C2CCN(c3cn[nH]c3)CC2)ccc1F [Compound 75, 4-(4-Fluoro-3-methoxyphenyl)-1-(1H-pyrazol-4-yl)piperidine] |
| 122 (≈ 39.9 µg/mL) |  |  |  | c1cc(C2CCN(c3cn[nH]c3)CC2)ccc1CN1CCOCC1 [Compound 121, 4-(4-(1-(1H-Pyrazol-4-yl)piperidin-4-yl)benzyl)morpholine] |
| 187 (≈ 59.4 µg/mL) | 90.00 | 83 | 41.70 | O=S1(=O)Cc2ccc(C3CCN(c4cn[nH]c4)CC3)cc2C1 [Compound 108, 5-(1-(1H-Pyrazol-4-yl)piperidin-4-yl)-1,3-dihydrobenzo[c]thiophene 2,2-dioxide] |
| 85.5 (≈ 28.2 µg/mL) |  |  |  | Fc1cc(C2CCN(c3cn[nH]c3)CC2)ccc1N1CCOCC1 [Compound 123, 4-(4-(1-(1H-Pyrazol-4-yl)piperidin-4-yl)-2-fluorophenyl)morpholine] |
| 247 (≈ 80.7 µg/mL) |  |  |  | O=C1COCCN1c1ccc(C2CCN(c3cn[nH]c3)CC2)cc1 [Compound 122, 4-(4-(1-(1H-Pyrazol-4-yl)piperidin-4-yl)phenyl)morpholin-3-one] |
| 63 |  |  |  | Cl.O=C1CCCN1c1ccc(C2CCN(c3cn[nH]c3)CC2)cc1 [Compound 119, 1-(4-(1-(1H-Pyrazol-4-yl)piperidin-4-yl)phenyl)pyrrolidin-2-one hydrochloride] |
|  | 67 | 70.3 | 20.80 | Clc1cccc(CC2CCN(c3cn[nH]c3)CC2)c1 [Compound 90, 4-(3-chlorobenzyl)-1-(1H-pyrazol-4-yl)piperidine] |
|  | 35.30 | 22.9 | 0.00 | Cc1cccc(CC2CCN(c3ccn[nH]3)CC2)c1 [Compound 97, 4-(3-Methylbenzyl)-1-(1H-pyrazol-5-yl)piperidine] |
|  | 39.8 | 26.4 | 0.00 | c1cnc(SC2CCN(c3cn[nH]c3)CC2)nc1 [Compound 88, 2-((1-(1H-Pyrazol-4-yl)piperidin-4-yl)thio)pyrimidine] |
|  | 84.4 | 55 | 13.80 | O=C(c1ccc(C2CCN(c3cn[nH]c3)CC2)cc1)N1CCCC1 [Compound 77, (4-(1-(1H-Pyrazol-4-yl)piperidin-4-yl)phenyl)(pyrrolidin-1-yl)methanone] |
| > 600 |  |  |  | C[C@@H](c1ccc(C2CCN(c3cn[nH]c3)CC2)cc1)N1CCCC1=O [Compound 126, (S)-1-(1-(4-(1-(1H-pyrazol-4-yl)piperidin-4-yl)phenyl)ethyl)pyrrolidin-2-one] |

More lines, now with the values behind:

| Compound | solubility at 2 h [1] [µM] | HLM % inh. @ 500 nM [2] [%] | inhibition at 0.5 µM [3] [%] | RLM % inh. @ 500 nM [4] [%] |
| --- | --- | --- | --- | --- |
| O=C1CCCN1c1ccc(CC2CCN(c3cn[nH]c3)CC2)cc1 [Compound 107, 1-(4-((1-(1H-Pyrazol-4-yl)piperidin-4-yl)methyl)phenyl)pyrrolidin-2-one] | 216 (≈ 70.1 µg/mL) | 78.90 | 82.3 | 63.60 |
| O=S(=O)(Nc1ccc(C2CCN(c3cn[nH]c3)CC2)cc1)C1CC1 [Compound 114, N-(4-(1-(1H-pyrazol-4-yl)piperidin-4-yl)phenyl)cyclopropanesulfonamide] | 74 (≈ 25.6 µg/mL) | 68.7 | 87.4 | 36.70 |
| CS(=O)(=O)Cc1ccc(C2CCN(c3cn[nH]c3)CC2)cc1 [Compound 89, 4-(4-((methylsulfonyl)methyl)phenyl)-1-(1H-pyrazol-4-yl)piperidine] | 324 (≈ 104 µg/mL) | 34.8 | 72.9 | 0.00 |
| C[C@H](c1ccc(C2CCN(c3cn[nH]c3)CC2)cc1)N1CCCC1=O [Compound 125, (R)-1-(1-(4-(1-(1H-pyrazol-4-yl)piperidin-4-yl)phenyl)ethyl)pyrrolidin-2-one] | > 600 |  |  |  |
| O=C1CCCN1Cc1ccc(C2CCN(c3ccn[nH]3)CC2)cc1F [Compound 110, 1-(4-(1-(1H-Pyrazol-5-yl)piperidin-4-yl)-2-fluorobenzyl)pyrrolidin-2-one] | 421 (≈ 144 µg/mL) | 80.4 | 84.1 | 63.60 |
| COc1ccc(C2CCN(c3cn[nH]c3)CC2)c(Cl)c1 [Compound 65, 4-(2-Chloro-4-methoxyphenyl)-1-(1H-pyrazol-4-yl)piperidine] | 18.7 (≈ 5.46 µg/mL) | 57.00 | 35 | 0.00 |
| Fc1cc(N2CCOCC2)ccc1C1CCN(c2cn[nH]c2)CC1 [Compound 124, 4-(4-(1-(1H-Pyrazol-4-yl)piperidin-4-yl)-3-fluorophenyl)morpholine] | 26.6 (≈ 8.79 µg/mL) |  |  |  |
| COc1cc(F)cc(C2CCN(c3cn[nH]c3)CC2)c1 [Compound 72, 4-(3-Fluoro-5-methoxyphenyl)-1-(1H-pyrazol-4-yl)piperidine] | 234 (≈ 64.4 µg/mL) | 77 | 77 | 11.00 |
| FC(F)(F)c1ccnc(C2CCN(c3cn[nH]c3)CC2)c1 [Compound 86, 2-(1-(1H-pyrazol-4-yl)piperidin-4-yl)-4-(trifluoromethyl)pyridine] |  | 37.9 | 49.4 | 18.10 |
| FC(F)(F)c1ccnc(C2CCN(c3ccn[nH]3)CC2)c1 [Compound 87, 2-(1-(1H-Pyrazol-5-yl)piperidin-4-yl)-4-(trifluoromethyl)pyridine] |  | 15.6 | 7.4 | 2.70 |
